Data taken from patent publication US6852708B2, “Use of hyaluronic acid and forms to prevent the narrowing of the vascular walls” (Jagotec AG, priority 1991, dated 2005).
“And” between values parts separate entries of the source, which are not always exact repeats. Identical values can stand only once.

Assays:
[1] = tested on: macrophage cell line WEHI-3; assay: Chemotaxis of macrophage cell line WEHI-3 to endotoxin-activated mouse serum (complement); type: cell-based; settings: peptide 2 μg/mL; FIG. 11
Method: (§1) The HA-binding region of RHAMM consists of two 10 amino acid domains located close to the carboxy terminus of the protein^15. A peptide mimicking Domain I (amino acides^401-411)—[…]—and a scrambled peptide consisting of the same amino acids arranged in a random manner-———-were synthesized at the Manitoba Institute of Cell Biology. Both peptides were used at a final concentration of 2 μg/mL in locomotion assays.
(§2) The macrophage cell lines S1 and WEHI-3 were used to analyze the effect of antibodies and synthetic peptide on macrophage chemotaxis to endotoxin-activated mouse serum (AS). These cell lines were also maintained in DME with 10% FCS and 20 mM Hepes buffer, pH 7.2 at 37° C. and 5% CO2 in air.
(§3) Chemotaxis was stimulated using either bacterial endotoxin-activated mouse serum (AS), prepared according to Stevenson et al.^18 for macrophage cell lines, or 100 ng/mL interleukin-8 (IL-8) for meutrophils. Heat-inactivated serum (56° C. for 20 minutes) or medium served as negative controls respectively. […] The number of displaced cells was quantified by the addition of 3-(4.5-dimethylthiazol-2-yl)-2.5-[…] tetrazolium bromide (MTT) to a final concentration of 250 μg/mL that was incubated at 37° C. for 4 hours. […] The plate was analyzed within 2 hours on a microtiter plate ELISA reader with a filter of 540 nm. […]

Human neutrophils = assay: Chemotaxis of neutrophils to IL-8; type: cell-based; settings: 100 ng/mL IL-8; peptide 2 μg/mL; FIG. 10
Method: as §1
Human neutrophils were obtained from peripheral blood samples of normal volunteers and mixed in ACD solution (0.085) M trisodium citrate, 0.065 M citric acid, 2% Dextrose) to prevent clotting. 5% Dextran was added and the separated plasma and white blood cells were removed. The cells were washed twice in PBS, pH 7.2 and a Ficoll gradient was used to separate the lymphocytes. The isolated neutrophils were then washed and resuspended in PBS. […]
as §3, with “meutrophils.” for “meutrophils. Heat-inactivated serum (56° C. for 20 minutes) or medium served as negative controls respectively.”

[2] = tested on: smooth muscle cells isolated from bovine aorta; assay: Smooth muscle cell migration after wounding of monolayers (timelapse cinemicrography); type: cell-based
Method: as §1
Smooth muscles cells were isolated from bovine aorta as described previously for rate aorta^17 and were maintained in Dulbecco's Modified Eagles medium (DME) supplemented with 10% fetal calf serum (FCS) and 20 mM Hepes buffer, pH 7.2 at 37° C. and 5% CO2 in air. All experiments were performed using defined medium [DM, Dulbecco's Modified Eagles medium with 20 mM HEPES buffer, pH 7.2, 0.5 U/mL insulin (beef and pork zinc suspension, Novo Laboratories Ltd., Willowdale, Ontario) and 4 μg/mL transferrin (Sigma Chemical Co., St. Louis, Mo.)], and the culture medium was replaced 24 hours before filming. […]
Injured cell monlayers were monitored for motility using an 1 M 35 Zeiss inverted microscope to which a video camera (Hamamatsu CCD, Inc., Japan) was attached. […] This program allows quantification of nuclear displacement from a sequence of digitalized images. The motility of thirty cells in each experiment was followed for a period of 24 hours with mean velocities calculated every hour.

macrophage cell line S1 = assay: Chemotaxis of macrophage cell line S1 to endotoxin-activated mouse serum (complement); type: cell-based; settings: peptide 2 μg/mL; FIG. 11
Method: as §1, §2, §3

injured carotid arteries = assay: Balloon angioplasty in rabbits perfused with hyaluronan, carotid artery histology; type: in vivo, rabbit; settings: perfused with hyaluronan 5 mg/ml just prior to injury; for adherence / accumulation of white cells on the endothelium of the injured carotid artery: 2, 24, 48 hours after injury
Method: 10 rabbits were anesthetized and balloon angioplasty was performed on them. The rabbits were perfused with hyaluronan (5 mg/ml) or buffer alone and allowed their recover. […] Sections were stained with hematoxylin or with anti RHAMM antibodies. 10 sections of each treatment were analyzed.

[3] = tested on: balloon catheter injured common carotid artery; assay: Balloon catheter injury of the common carotid artery in cholesterol-fed rabbits, hyaluronan i.v. bolus then daily s.c.; type: in vivo, New Zealand White rabbit; settings: for reduction in mean intimal macrophage content: versus cholesterol-diet alone, p<0.02; for reduction of the absolute neo-intimal response to injury (absolute size of the neo-intima): versus cholesterol-fed group given saline, p<0.05, 15 mg/kg/day
Source text: Juvenile New Zealand White rabbits (3 to 6 months old), weighing approximately 2.5 kg were obtained from Rosemead Rabbit Co. Essex, UK) and housed in the Biological Services Unit of St. bartholomew's Hospital Medical College, London.
After one week on a commercial rabbit chow diet (Scientific Diet Services, Essex, UK) the animals were started on a 2% cholesterol diet (Scientific Diet Services, Essex, UK). Water was allowed ad libitum.
One week after starting the above diet, animals were anaesthetized with intramuscular xylazine [Rompun (Bayer, Suffolk, UK); 40 mg/kg] and ketamine [Vetalar (Parke-Davis, UK); 10 mg/kg]. The left carotid bifurcation was exposed through a paramedian incision, and the external carotid artery prepared for balloon injury. The animals were injected with a bolus of sterile sodium hyaluronate (15 mg/kg) referred to at page 15, line 31 to page 16 line 1 (Hyal Pharmaceutical Corporation, Ontario, Canada) or saline via a marginal ear vein. Endothelium was then removed from the entire left common carotid artery by the passage of an inflated 2F French Fogarty Embolectomy catheter as previously described (Ferns et al 1992). The catheter was then withdrawn, the external carotid tied off, and the skin and deep fascia closed with chromic catgut and discontinuous 3-O silk. The validity of the procedure for endothelial cell denudation was assessed by scanning electron microscopy of a number of carotids from animals killed immediately post-operatively. Animals received a further subcutaneous injection of hyaluronic acid (15 mg/kg) or saline post-operatively, and daily until sacrifice.
Blood for serum cholesterol was collected from each animal before the start of each experimental diet, peri-operatively and at the time of sacrifice. Samples were separated by centrifugation and stored at −20° C. prior to analysis.
Two weeks after carotid de-endothelialization, the animals were sedated with intramuscular xylazine and ketamine and given an intravenous injection of 2% Evans blue in isotonic phosphate-buffered saline. Five minutes later, an abdominal incision was made to access the abdominal aorta for insertion of a cannula connected to a perfusion apparatus, and both jugular veins exposed for perfusion run-off. The animals were then killed by an overdose of anaesthetic and perfused with buffered saline at a rate of 100 ml/minute/kg body weight. When the run-off was clear, the saline was replaced with 4% paraformaldehyde in isotonic PBS at the same flow rate. Perfusion was continued for 15 minutes. After fixation in situ, the denuded and contralateral carotids were dissected free and cleaned of adherent fat and fascia. The segments were immediately rinsed in PBS and placed in fresh 4% paraformaldehyde overnight for paraffin embedding. Some segments were placed into 2.5% glutaraldehyde for subsequent processing for electron microscopy.
Five micron sections were taken from the blue (de-endothelialised) segments of carotid artery, for haematoxylin and eosin (H&E) staining. Adjacent sections were cut for elastin staining using Verhoeff-Van Geisen (VVG) stain, and immunostaining using monoclonal antibodies directed against rabbit alveolar macrophages (RAM-11) and smooth muscle cell actin (HHF-35), as described by Tsukada et al. (1986).
Serum cholesterol levels were measured by the CHOD-POD enzymatic-colorimetric method using a Cholesterol C-system kit (Boehringer Corp., Lewes, UK) and a Vitalab 100 autoanalyzer with Precipath U and Precinorm U (Boehringer Corp., Lewes, UK) quality control material.
The intimal and medial thickness of each segment was measured using a Zeiss Axioskop microscope equipped with a X10 Achroplan objective, a digitizing pad and an IBM 55SX PC containing a VIDS V interface card and VIDS V software. Measurements were performed in duplicate on three mid-carotid VVG stained sections. […]

[4] = tested on: balloon angioplasty injured carotid artery; assay: Balloon angioplasty injury in cholesterol-fed rabbits, hyaluronan injections administered subcutaneously; type: in vivo, rabbit
Method: Tests were conducted with cholesterol-fed rabbits and the following was found. The tests were of the same nature except that the injections of the hyaluronan (sodium hyaluronate) were administered subcutaneously.

[5] = MEAN of HYAL + CHOL group, N=15, 2 weeks after injury
[6] = hyaluronan-treated group, 2 weeks after injury
[7] = individual animals of the HYAL + CHOL group, 2 weeks after injury
[8] = mean ± SEM, n=15, Hyal 15 mg/kg/d
[9] = HYAL + CHOL group, n=15, s.c. injections

Q: YKQKIKHVVKLK [peptide aa^401-411] was tested. Which “chemotaxis of WEHI-3 to endotoxin-activated mouse serum” value [1] did it give?
A: inhibited

Q: And the “chemotaxis of neutrophils to IL-8” value (Human neutrophils)?
A: significantly inhibited

Q: And the “locomotion of smooth muscle cells responding to injury” value ([2]; peptides 100 ng/plate, FIG. 6)?
A: inhibits

Q: And the “rate of translocation of smooth muscle cells following wounding of monolayers” value ([2]; peptides 2 μg/mL, 5 hours after wounding, FIG. 12)?
A: significantly reduced

Q: What about the “chemotaxis of S1 to endotoxin-activated mouse serum” value (macrophage cell line S1) of the same substance?
A: inhibited

Q: Which “endothelial cell layer of the injured carotid artery (histology)” value (injured carotid arteries) does the source give for sodium hyaluronate here?
A: intact endothelial cell layer

Q: And the “adherence / accumulation of white cells on the endothelium of the injured carotid artery” value (injured carotid arteries; listed as Hyaluronan)?
A: abolished

Q: And the “adherence / accumulation of white cells on the endothelium of the injured carotid artery” value (injured carotid arteries; listed as hyaluronan)?
A: do not exhibit accumulations of white cells

Q: And the “intimal thickening in the cholesterol-fed rabbits” value ([3]; 15 mg/kg i.v. immediately pre-operatively, then daily s.c. for fourteen days)?
A: significantly inhibited

Q: What about the “neo-intimal macrophage content in the cholesterol-fed rabbits” value ([3]; 15 mg/kg/d, 2 weeks after injury) of the same substance?
A: reduced

Q: What about the “mean medial thickness compared with the control animals” value ([3]; 2 weeks after injury, p>0.05) of the same substance?
A: did not differ significantly

Q: What about the “Body Weight, Sacrifice” value ([3]; MEAN of HYAL + CHOL group, N=15) of the same substance?
A: 2.64 kg

Q: What about the I/M [3, 5] of the same substance?
A: 0.59

Q: What about the INTIMA [3, 5] of the same substance?
A: 65.79 microns

Q: And the “Intimal Macrophage Content (%)” value [3, 5]?
A: 3.22%

Q: And the MEDIA [3, 5]?
A: 105.01 microns

Q: What about the “Mean weight, Sacrifice” value ([3]; group mean ± SEM, n=15, at sacrifice, Hyal 15 mg/kg/d) of the same substance?
A: 2.64 ± 0.09 kg

Q: And the “intima: media ratio” value [3, 6]?
A: 0.59±0.011

Q: What about the “mean intimal macrophage content” value [3, 6] of the same substance?
A: 3.22±1.05%

Q: And the I/M [3, 7]?
A: 0.68 and 1.10 and 0.21 and 0.42 and 0.46 and 0.30 and 1.03 and 0.66 and 0.24 and 1.61 and 0.81 and 0.10 and 0.72 and 0.08 and 0.45

Q: And the INTIMA [3, 7]?
A: 82.60 microns and 212.00 microns and 22.00 microns and 55.62 microns and 42.10 microns and 17.44 microns and 76.40 microns and 48.23 microns and 26.63 microns and 187.50 microns and 112.22 microns and 8.44 microns and 84.87 microns and 8.38 microns and 2.35 microns

Q: And the “Intimal Macrophage Content (%)” value [3, 7]?
A: 6.90% and 13.20% and 3.10% and 5.50% and 0.17% and 1.10% and 0.40% (2×) and 0.00% (2×) and 1.70% and 7.80% and 0.50% and 4.70% and 2.90%

Q: And the MEDIA [3, 7]?
A: 118.90 microns and 200.00 microns and 109.00 microns and 139.14 microns and 91.10 microns and 78.28 microns and 74.70 microns and 74.65 microns and 111.50 microns and 118.72 microns and 143.77 microns and 83.43 microns and 120.62 microns and 105.57 microns and 5.81 microns

Q: And the “Body Weight, Sacrifice” value ([3]; individual animals of the HYAL + CHOL group, at sacrifice)?
A: 2.60 kg (2×) and 2.89 kg and 2.91 kg and 3.40 kg and 2.88 kg and 2.81 kg (2×) and 2.25 kg and 2.74 kg and 2.35 kg and 2.15 kg and 2.40 kg and 2.38 kg and 2.42 kg

Q: What about the “Body Weight, Start” value ([3]; individual animals of the HYAL + CHOL group, before treatment) of the same substance?
A: 2.25 kg

Q: And the “Mean Intimal thickness 2 weeks after injury” value [3, 8]?
A: 0.068 ± 0.016 mm

Q: What about the “Mean intima/media ratio 2 weeks after injury” value [3, 8] of the same substance?
A: 0.59 ± 0.11

Q: And the “Mean intimal macrophage content 2 weeks after injury (% of total cell number)” value [3, 8]?
A: 3.22 ± 0.98%

Q: And the “gain in body weight over the three week experimental period” value ([3]; rabbit, in vivo)?
A: approximately 30%

Q: What about the “reduction in mean intimal macrophage content” value ([3]; 2 weeks after injury, listed as Hyaluronan) of the same substance?
A: 62%

Q: And the “reduction in mean intimal macrophage content” value ([3]; 2 weeks after injury, listed as hyaluronan)?
A: approximately 62%

Q: What about the “reduction of the intima: media ratio” value ([3]; versus cholesterol-fed control group, 2 weeks after injury, 15 mg/kg/d) of the same substance?
A: 35%

Q: What about the “reduction of the absolute neo-intimal response to injury (absolute size of the neo-intima)” value ([3]; 2 weeks after injury, 15 mg/kg/d, listed as Hyaluronan) of the same substance?
A: 42%

Q: What about the “reduction of the absolute neo-intimal response to injury (absolute size of the neo-intima)” value ([3]; 2 weeks after injury, 15 mg/kg/d, listed as hyaluronan) of the same substance?
A: approximately 46%

Q: And the “mean I:M ratio” value [4, 9]?
A: 0.591

Q: And the “mean absolute intimal thickness” value [4, 9]?
A: 95.7 μm

Q: And the “neo-intimal thickness following balloon angioplasty injury” value ([4]; cholesterol-fed rabbits, FIGS. 20 and 21)?
A: significantly inhibited
